Measured values: patent publication US8859625B2, “Methods to prepare penta-1,4-dien-3-ones and substituted cyclohexanones and derivatives with antitumoral and antiparasitic properties, the compounds and their uses” (Universidade Bandeirante de Sao Paulo-Academia, Paulista …, priority 2006, dated 2014)
Where two headings read alike, the source gives them in different places.

What was measured:
B16F10 melanoma = B16F10 melanoma tumors implanted in C57BL/6J mice, intraperitoneal treatment; tumor area and volume; assay type: in vivo; conditions: diluted in Miglyol 810, intraperitoneal 100 μl daily, 14 days
Method: After the Day 4 of tumor cells implant (2×10^5 tumoral cells/mL), the animals were splitted in two groups: the test group, treated with HB-1 compound diluted in Miglyol 810® and the control group, which received only the diluent (Miglyol 810®) in the same volume as the test group. The animals were daily treated by intraperitoneal route. Concomitantly, measurements of animal weight and tumor size (two measures—length×width) were performed and tumor aspect registered by photographies.
After the Day 14, the animals were sacrificed by cervical displacement, tumors were removed, and necropsy performed to remove all internal organs and macroscopic lesions for hystopathologic analysis.
Tumoral parameters were obtained by calculation of tumor average area (A) and volume (V), through the following formulas A=πR^2 and V=4/3πR^3, where (R=average tumor radius). […]
After tumoral cell implant, the animals were treated with the HB-2 compound diluted in Miglyol 810® and with (HB2+HB-1) conjugate whereas the control group received the same volume of diluent and by the same administration route (intraperitoneal—100 μl). Daily, the animals received the compounds (100 μl) and the control group received Miglyol 810®, the animals were weighted, and the tumors were measured (length×width) and photographed. […]

[1] = tested on: human fibroblasts of normal skin; experiment: MTT cytotoxic and antiproliferative effects on human fibroblasts of normal skin; assay type: cell-based; conditions: diluted in Miglyol 810, 24 hours
Method: Analysis of Cytotoxic Effects by the MTT Method and Antiproliferative Effects for HB-2 Compound Diluted in Miglyol 810® and Miglyol 810® Control on Human Fibroblasts of Normal Skin.
Skin fragments were asseptically collected during surgical procedures for tissue remotion in aesthetic surgery and immediately transferred to 50 mL sterile vials containing HAM F-12 (Gibco) culture medium supplemented with 20% of bovine fetal serum. Fragments were chopped, cleaned, and the smaller fragments were cultivated in Petri dishes in a Ham-F12 culture medium supplemented with 10% bovine fetal serum, and kept in humidified stoven at 37° C. and 5% C02.
When attained subconfluence, the cells were trypsinized for 5 minutes, inactivated with 10% bovine fetal serum, centrifuged for 10 minutes at 2000 rpm at 4° C., transferred to 96 well flat bottom plates, and cultivated for 24 hours in a CO2 5% stoven. Fibroblasts were treated for 24 hours with different concentrations of HB-2 compound diluted in Miglyol 810® and the control group received the same volumes of Miglyol alone; cytotoxic and antiproliferative effects were evaluated by the MTT colorimetric method.

[2] = cited from earlier work
B16F10 melanoma cells = experiment: Cytotoxic and antiproliferative effects by the MTT colorimetric method on B16F10 melanoma cells; assay type: cell-based, murine; conditions: for IC50: Mus musculus
Source text: Analysis of Cytotoxic and Antiproliferative Effects of HB-1 Compound and Miglyol 810® as Control by the MTT Colorimetric Method on B16F10 Melanoma Cells.
The colorimetric methodology for the respiratory route of mitochondria MTT (3-(4,5-dimethylthiazol-2-yl)2,5-diphenyl tetrazolium bromide) was used, as described by MOSMANN (1983). This method is based on the reduction of MTT to formazan by living cells. After growth and in vitro confluence of normal and tumoral cells, different concentrations of the HB-1 compound diluted in Miglyol 810® and the diluent-control (Miglyol 810®) have been added on the adhering cells, incubated for 24 hour. After the referred period, 10 μl of MTT (5 mg/mL) were added and incubated for 3 hours in stove with 5% CO2 at 37° C. After this period, the content of the culture plates were centrifuged for 2 minutes at 1800 rpm, at 4° C., the supernatant was removed and 100 μL of dimethyl sulfoxide (DMSO) were added to dissolve formazan crystals previously constituted and precipitated. The absorbances were obtained by an ELISA reader at 540 nm (TiterTek Multiskan) wavelength, with the results obtained shown in FIG. 12.
IC50 Evaluation for B16F10 Melanoma Cells, Obtained from the Linear Equation.

T lymphocytes = experiment: Cytotoxic and proliferative activity on T lymphocytes (MTT, compared to PHA); assay type: cell-based, C57BL/6J mice
Method: Preparation of T Lymphocytes
Groups composed by 5 C57BL/6J mice of 2 months of age were sacrificed by cervical displacement and its lymph nodes chain from axillary, popliteal, and mesenteric regions were removed under sterile conditions. Lymph nodes were maintained in RPMI-1640 culture medium supplemented with 10% inactivated bovine fetal serum at 56° C. in the presence of antibiotics, and debridement was performed with the assistance of a bistury. The resulting cell suspension was filtered through 30 μm dialysis membrane and centrifuged for 10 minutes at 1800 rpm at 4° C. Cell pellet was resuspended in 5 mL RPMI complete medium and, after that, incubated in Petri dishes containing 10 mL bovine fetal serum for 1 hour in stove, at 37° C. and 5% CO2. […] Cell concentration was adjusted in Mallassez chamber to a 5×10^5 cells/mL concentration and cell viability was determined by the exclusion method with Trypan blue.
Cytotoxic and proliferative activities were determined in a 96 well plate and compared to mitogenic activity of phytohemagglutinin (PHA) and evaluated by the MTT calorimetric method. The obtained values were expressed as percentage.
The data of each experiment were statistically analysed by the ANOVA variance test with de p<0.05 significance.

[3] = Acute and subchronic toxicology in Balb-c mice by the endovenous route; assay type: in vivo
Method: Acute and Subchronic Toxicology of DM-1 in Balb-c Mice by the Endovenous Route.
Balb-c mice were weighted and housed in the biotery, subdivided into groups of 05 animals per cage and, after two weeks, received the DM-1 compound in different concentrations by the endovenous route. The compound was administered in a 0.2 mL volume using microseringe, for all concentrations, through the retro-orbital venous plexus.

For `COc1cc(C=CC(=O)C=Cc2ccc(OC(C)=O)c(OC)c2)ccc1OC(C)=O` [HB-2, 4-[5-(4-acetoxy-3-methoxy-phenyl)-3-oxo-penta-1,4-dienyl]-2-methoxy-phenylacetate], the “reduction of tumoral burden (tumor area and volume)” value (B16F10 melanoma) was 60% and the “cytotoxic effect in normal human fibroblasts” value [1] was “no cytotoxic effect was observed”.

In the case of `COc1cccc2c1C(=O)c1c(O)c3c(c(O)c1C2=O)C[C@@](O)(C(=O)CO)C[C@@H]3O[C@H]1C[C@H](N)[C@H](O)[C@H](C)O1` [Doxorubicin], the “50% LETHAL DOSE” value ([2]; background table) is listed as 20 mg/kg and the “LETAL DOSE 50%” value ([2]; comparison table, drugs of the therapeutics) is listed as 20 mg/kg.

With `COc1cc(/C=C/C(=O)/C=C/c2ccc([O-])c(OC)c2)ccc1[O-].[Na+].[Na+]` [DM-2, disodium 3-oxo-penta-1,4-dienyl-bis(2-methoxy-phenolate)] the “in vitro efficacy in relation to the monosodium DM-1 compound, fold smaller” value (B16F10 melanoma cells) was “around 6.0 fold”, the IC50 (B16F10 melanoma cells; B16-F10, read-out: DOSE, footnote: obtained by preclinic experimental models) was 1.9 µg/mL and the IC50 (B16F10 melanoma cells; B16-F10, sodium salts, B16F10 murine melanoma, MTT, read-out: IC50) was 7.95 µg/mL. The “toxic activity on normal cells” value (T lymphocytes; T lymphocytes) was “no toxic activity on normal cells”, the “proliferative activity of T lymphocytes” value (T lymphocytes; different concentrations, compared to PHA 2.5 and 5.0 μg) was “induced no proliferative activity” and the “LETAL DOSE 50%” value ([3]; comparison table, own compound) was 700 mg/kg.

In the case of `COc1cc(/C=C/C(=O)/C=C/c2ccc(O)c(OC)c2)ccc1[O-].[Na+]` [DM-1, sodium 4-[5-(4-hydroxy-3-methoxy-phenyl)-3-oxo-penta-1,4-dienyl]-2-methoxy-phenolate], the “increase in cytotoxic effects (in vitro efficacy)” value (B16F10 melanoma cells; monosodium composition relative to HB-1) is reported as 7.0 fold, the “LD50 compared to doxorubicin, fold smaller” value ([3]; Balb-c, mouse, in vivo, 24 h) is reported as 35 fold and the “50% lethal dose (DL50)” value ([3]; endovenous route) is reported as 14 mg/kg. The maximum tolerable dose ([3]; endovenous route) was 14 mg/kg, the “behavioral alteration after the administration” value ([3]; endovenous, 0.2 mL via retro-orbital venous plexus) was “no behavioral alteration was observed” and the “macroscopic and hystopathologic alterations of the internal organs” value ([3]; necropsy at Day 30) was “no significant macroscopic and hystopathologic alterations”. The “acute respiratory and cardiac toxicity” value ([3]; preclinic tests) was “has not present any suggestive effect of acute respiratory and cardiac toxicity”.
